Counter-ions that a name gives are not always drawn.
Key:
S1P3 [1] = target: T1, S1P3 (Homo sapiens, UniProt Q99500); test: Method A: Receptor [35S] GTPγS Binding Assay, S1P3; format: biochemical; design: expressed in transfected cells; conditions: EDG3-Gal5-bla HEK293T cell membranes
Protocol: (§1) Method A: Receptor [35S] GTPγS Binding Assays
(§2) Compounds were loaded in a 384 FALCON® v-bottom plate (0.5 μl/well in a 3-fold dilution). Membranes prepared from S1P1/CHO cells or EDG3-Gal5-bla HEK293T cells were added to the compound plate (40 μl/well, final protein 3 μg/well) with MULTIDROP®. [^35S]GTP (1250 Ci/mmol, Perkin Elmer) was diluted in assay buffer: 20 mM HEPES, pH7.5, 10 mM MgCl2, 150 mM NaCl, 1 mM EGTA, 1 mM DTT, 10 μM GDP, 0.1% fatty acid free BSA, and 10 μg/ml Saponin to 0.4 nM. 40 μl of the [^35S] GTP solution was added to the compound plate with a final concentration of 0.2 nM. The reaction was kept at room temperature for 45 min. At the end of incubation, all the mixtures in the compound plate were transferred to a 384 well FB filter plates via GPCR robot system. The filter plate was washed with water 4 times by using the modified manifold Embla plate washer and dried at 60° C. for 45 min. 30 μA of MicroScint 20 scintillation fluid was added to each well for counting at Packard TOPCOUNT®. EC50 is defined as the agonist concentration that corresponds to 50% of the Ymax (maximal response) obtained for each individual compound tested.
(§3) Compounds of the present invention and Comparative Compound A were tested in the Receptor [^35S] GTPγS Binding Assays (Method A) and Receptor [^35S] In some instances, the value is an average of multiple experiments where N is the number of experiments conducted that provided satisfactory dose response curves. When more than one batch of an example was tested, the value presented is from a batch which allowed a comparison of GTPγS S1P1 and GTPγS S1P3 in which the most number of experiments were performed. Preferably, the same batch was examined in Method A and Method B. Data was not averaged across different batches of an example compound.

S1P1 [2] = target: T2, S1P1 (Homo sapiens, UniProt P21453); test: Method A: Receptor [35S] GTPγS Binding Assay, S1P1; format: biochemical; conditions: for EC50: Method A, S1P1/CHO cell membranes; for GTPγS S1P3/S1P1 (Method A): ratio of S1P3 EC50 to S1P1 EC50, Method A
T2 construct: expressed in transfected cells; host or cells: CHO cells
Protocol: as §1, §2, §3

S1P1 [3] = target: T2, S1P1; test: Method B: Receptor [35S] GTPγS SPA Binding Assay, S1P1; format: biochemical; conditions: for EC50: Method B (SPA), S1P1 transfected CHO cell membranes; for GTPγS S1P3/S1P1 (Method B): ratio of S1P3 EC50 to S1P1 EC50, Method B
Protocol: (§4) Method B: Receptor [^35S] GTPγS SPA Binding Assays
(§5) Membranes prepared from S1P1 or S1P3 transfected CHO cells (2 μg protein) were incubated in 96-well white plates (CORNING® 3693) with test compounds diluted in DMSO, in 50 μl of reaction mixture containing 7.5 μA WGA-PVT beads (20 mg/ml), and 5 μM GDP, 20 mM HEPES pH 7.4, 100 mM NaCl, 1 mM EDTA, 5 mM MgCl2, 10 μg/ml saponin, 0.1% BSA, and 1 μM leupeptin. The assay was initiated with the addition of […] of 0.2 nM [^35S]-GTPγS (1250 Ci/mmol; NEN) in assay buffer. After 90 min incubation at room temperature, spin the plate at 1000 rpm for 5 min. The bound radionuclides were measured at TOPCOUNT®, expressed as % response relative to S1P (1 μM) activation. Data was analyzed using the four parameter logistic equation in Excel. The four parameters in the equation, Y=A+((B−A)/(1+((EC50/X)^D))), are described as following: A is the Y value (agonist activity) at the bottom plateau; B is the Y value at the top plateau; EC50 is the X value (agonist concentration) when the response is halfway between bottom and top; D is Hill coefficient. Curves were not generated for compounds having Ymax values were below 50%.
as §3

S1P1 [4] = target: T2, S1P1; test: S1P1 Binding Assay (33P-S1P competition, CHO membranes); conditions: membranes of CHO cells expressing human S1P1, 33P-S1P ligand; read-out: S1P1 B IC50
Protocol: Membranes were prepared from CHO cells expressing human S1P1. Cells were dissociated in buffer containing 20 mM HEPES, pH 7.5, 50 mM NaCl, 2 mM EDTA and Protease Inhibitor cocktail (Roche), and disrupted on ice using the Polytron homogenizer. The homogenate was centrifuged at 20,000 rpm (48,000 g) and the supernatant was discarded. The membrane pellets were resuspended in buffer containing 50 mM HEPES, pH 7.5, 100 mM NaCl, 1 mM MgCl2, 2 mM EDTA and stored in aliquots at −80° C. after protein concentration determination.
Membranes (2 μg/well) and 0.03 nM final concentration of ^33P-S1P ligand (1 mCi/ml, American Radiolabeled Chemicals) were added to the compound plates. Binding was performed for 60 min at room temperature, terminated by collecting the membranes onto GF/B filter plates, and radioactivity was measured by TOPCOUNT®. The competition data of the test compounds over a range of concentrations was plotted as percentage inhibition of radioligand specific binding. The IC50 is defined as the concentration of competing ligand needed to reduce specific binding by 50%.
Compounds of the present invention and Comparative Compound A were tested in the S1P1 binding assay described hereinabove and the results rounded to two digits, shown in Table A were obtained. In some instances, the value is an average of multiple experiments where N is the number of experiments conducted that provided satisfactory dose response curves. When more than one batch of an example was tested, the value presented is from the batch which allowed a comparison of GTPγS S1P1 and GTPγS S1P3 in Method A (Data shown in Table B). Data was not averaged across different batches of an example compound.

S1P3 [5] = target: T1, S1P3; test: Method B: Receptor [35S] GTPγS SPA Binding Assay, S1P3; format: biochemical; design: expressed in transfected cells; host or cells: CHO cells; conditions: S1P3 transfected CHO cell membranes
Protocol: as §4, §5, §3

circulating lymphocytes [6] = test: Blood Lymphocyte Reduction Assay (BLR) in mice; format: in vivo, BALB/c mice; conditions: oral
Protocol: (§6) Blood Lymphocyte Reduction Assay (BLR) in Rodents
(§7) Lewis rats or BALB/c mice were dosed orally with test article (as a solution or suspension in the vehicle) or vehicle alone (polyethylene glycol 300, “PEG300”). Blood was drawn at 4 hr and 24 h by retro-orbital bleeding. Blood lymphocyte counts were determined on an ADVIA 120 Hematology Analyzer (Siemens Healthcare Diagnostics). The results were measured as a reduction in the percentage of circulating lymphocytes as compared to the vehicle treated group at the 4 hr and 24 hr measurement. The results represent the average results of all animals within each treatment group (n=3-4).
(§8) Compounds of the present invention were tested in the Blood Lymphocyte Reduction assay (BLR) described hereinabove and the results are shown in Table D for rats and Table E for mice.

Lewis rats = test: Rat Adjuvant Induced Arthritis Assay (AA); format: in vivo; conditions: for Paw Swelling (mL) on Day 21, Mean: vehicle mean 1.58
Protocol: Rat Adjuvant Induced Arthritis Assay (AA)
Male Lewis rats (150-175 g; Harlan, n=8 treatment group) were immunized at the base of the tail with 100 μl of 10 mg/ml freshly ground Mycobacterium butyricum (Difco Laboratories) in incomplete Freund's adjuvant (sigma). Animals were dosed once daily with the test article (as a solution or suspension in the vehicle) or vehicle alone (polyethylene glycol 300, “PEG300”) starting from the day of immunization. The volumes of their hind paws were measured in a water displacement plethysmometer (Ugo Basile, Italy). The baseline paw measurements were taken before onset of the disease (between day 7 to day 10). The paw measurements were then taken three times a week until the end of the study on day 20 to 21. All procedures involving animals were reviewed and approved by the Institutional Animal Care Use Committee.
Compounds of the present invention were tested in the Rat Adjuvant Induced Arthritis assay described hereinabove and the results are shown in Table F and Table G.

circulating lymphocytes [7] = test: Blood Lymphocyte Reduction Assay (BLR) in rats; format: in vivo, Lewis rats; conditions: oral
Protocol: as §6, §7, §8

T1 sequence (Q99500 whole entry): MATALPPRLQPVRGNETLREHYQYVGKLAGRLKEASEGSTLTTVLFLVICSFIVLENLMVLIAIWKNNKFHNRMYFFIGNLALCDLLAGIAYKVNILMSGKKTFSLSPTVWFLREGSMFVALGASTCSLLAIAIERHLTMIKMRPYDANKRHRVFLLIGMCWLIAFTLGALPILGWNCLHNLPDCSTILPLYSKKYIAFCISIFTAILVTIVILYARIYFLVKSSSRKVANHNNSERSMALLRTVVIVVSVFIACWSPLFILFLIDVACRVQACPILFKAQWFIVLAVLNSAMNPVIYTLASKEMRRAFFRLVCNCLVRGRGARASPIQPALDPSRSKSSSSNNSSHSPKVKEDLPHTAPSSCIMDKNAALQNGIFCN
T2 sequence (P21453 whole entry): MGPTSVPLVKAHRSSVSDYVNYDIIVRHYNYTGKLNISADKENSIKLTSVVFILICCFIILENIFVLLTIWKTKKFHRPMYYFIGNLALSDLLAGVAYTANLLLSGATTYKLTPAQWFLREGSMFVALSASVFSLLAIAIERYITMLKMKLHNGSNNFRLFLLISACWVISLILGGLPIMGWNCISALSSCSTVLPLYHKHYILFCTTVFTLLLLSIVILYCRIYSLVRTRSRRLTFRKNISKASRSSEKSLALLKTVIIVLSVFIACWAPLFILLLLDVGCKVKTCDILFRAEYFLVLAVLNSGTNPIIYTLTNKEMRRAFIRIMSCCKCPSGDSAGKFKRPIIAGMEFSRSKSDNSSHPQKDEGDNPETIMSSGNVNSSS

## Cc1c(-c2nc(-c3ccc(CN4CC(C(=O)O)C4)cc3)no2)cnn1-c1ccccc1 [Example 5, 1-(4-(5-(5-methyl-1-phenyl-1H-pyrazol-4-yl)-1,2,4-oxadiazol-3-yl)benzyl)azetidine-3-carboxylic acid]
S1P3 [1]
  EC50: 13 µM
S1P1 [2]
  EC50: 0.26 µM
  GTPγS S1P3/S1P1 (Method A): 50
S1P1 [3]
  EC50: 0.017 µM
S1P1 [4]
  IC50: 0.03 µM

## O=C(O)C1CN(Cc2ccc(-c3noc(-c4cnn(-c5ccccc5)c4-c4cccnc4)n3)cc2)C1 [Example 15, 1-(4-(5-(1-Phenyl-5-(pyridin-3-yl)-1H-pyrazol-4-yl)-1,2,4-oxadiazol-3-yl)benzyl)azetidine-3-carboxylic acid, 2,2,2-trifluoroacetic acid salt]
S1P3 [5]
  EC50: 4.1 µM
S1P3 [1]
  EC50: 3.6 µM
S1P1 [2]
  EC50: 0.052 µM
  GTPγS S1P3/S1P1 (Method A): 69
S1P1 [3]
  EC50: 0.0022 µM
  GTPγS S1P3/S1P1 (Method B): 1,900
S1P1 [4]
  IC50: 0.0054 µM

## O=C(O)C1CN(Cc2ccc(-c3noc(-c4cnn(-c5ccccc5)c4C(F)(F)F)n3)cc2)C1 [Example 2, 1-(4-(5-(1-Phenyl-5-(trifluoromethyl)-1H-pyrazol-4-yl)-1,2,4-oxadiazol-3-yl)benzyl)azetidine-3-carboxylic acid]
S1P3 [5]
  EC50: 2.1 µM
Circulating lymphocytes [6]; 0.04 mg/kg
  % reduction in lymphocytes at 4 hr.: 68%
  % reduction in lymphocytes at 24 hr.: 5%
Circulating lymphocytes [6]; 0.2 mg/kg
  % reduction in lymphocytes at 4 hr.: 76%
  % reduction in lymphocytes at 24 hr.: 64%
Circulating lymphocytes [6]; 1.0 mg/kg
  % reduction in lymphocytes at 4 hr.: 80%
  % reduction in lymphocytes at 24 hr.: 82%
Circulating lymphocytes [6]; 3.0 mg/kg
  % reduction in lymphocytes at 4 hr.: 73%
  % reduction in lymphocytes at 24 hr.: 89%
S1P1 [2]
  EC50: 0.0019 µM
S1P1 [3]
  EC50: 0.00017 µM
  GTPγS S1P3/S1P1 (Method B): 12,000
S1P1 [4]
  IC50: 0.0003 µM
Lewis rats; 0.2 mg/kg once daily
  Paw Swelling (mL) on Day 21, Mean: 02.12 mL
Lewis rats; 1.0 mg/kg once daily
  Paw Swelling (mL) on Day 21, Mean: 0.91 mL
Lewis rats; 3.0 mg/kg once daily
  Paw Swelling (mL) on Day 21, Mean: 0.19 mL
Lewis rats; 10.0 mg/kg once daily
  Paw Swelling (mL) on Day 21, Mean: 0.10 mL
Lewis rats; Lewis rat, prophylactic oral dosing
  disease progression as measured by paw swelling: inhibit disease progression
Circulating lymphocytes [7]; 0.04 mg/kg
  % reduction in lymphocytes at 4 hr.: 64%
  % reduction in lymphocytes at 24 hr.: 8%
Circulating lymphocytes [7]; 0.2 mg/kg
  % reduction in lymphocytes at 4 hr.: 76%
  % reduction in lymphocytes at 24 hr.: 55%
Circulating lymphocytes [7]; 1.0 mg/kg
  % reduction in lymphocytes at 4 hr.: 76%
  % reduction in lymphocytes at 24 hr.: 79%

## CCCc1c(-c2nc(-c3ccc(CN4CC(C(=O)O)C4)cc3)no2)cnn1-c1ccccn1 [Example 6, 1-(4-(5-(5-propyl-1-(pyridin-2-yl)-1H-pyrazol-4-yl)-1,2,4-oxadiazol-3-yl)benzyl)azetidine-3-carboxylic acid]
S1P3 [5]
  EC50: 1.3 µM
S1P3 [1]
  EC50: 2.9 µM
S1P1 [2]
  EC50: 0.0042 µM
  GTPγS S1P3/S1P1 (Method A): 690
S1P1 [4]
  IC50: 0.00012 µM
